In ChEMBL document CHEMBL1201862, “PubChem BioAssay data set” (2004):
Active and inactive are the calls of the source.

Assays:
[1] = biological target: Induced myeloid leukemia cell differentiation protein Mcl-1 (Homo sapiens, UniProt Q07820); type: functional
H4 = test: Luminescence Cell-Based Dose Response HTS to Identify Activators of 5'UTR Stem-Loop Driven Prion Protein mRNA Translation in H4 Neuroglioblastoma Cells. [Related pubchem assays: 1829 (Project Summary), 1814 (Primary HTS)]; type: functional; settings: Homo sapiens
[2] = Luminescence Cell-Based Dose Response HTS to Identify Activators of Luciferase Translation or Activity in H4 […] Cells. [Related pubchem assays: 1829 (Project Summary), 1814 (Primary HTS)]; type: functional
[3] = Luminescence Cell-Based Dose Confirmation HTS to Identify Activators of 5'UTR Stem-Loop Driven Alpha-Synuclein mRNA Translation in H4 Neuroglioblastoma Cells. [Related pubchem assays: 1829 (Project Summary), 1814 (Primary HTS)]; type: functional
[4] = cytotoxicity in OVCAR8 ovarian cancer cells, dose response, PAX8 project, cell-based, plate reader, dry powder samples (AID 743197); type: functional; settings: OVCAR-8
Paired box protein Pax-8 = Paired box protein Pax-8 (Homo sapiens, UniProt Q06710); test: inhibitors of PAX8-driven TPO luciferase reporter, dose response, RMG-I cells, cherry-pick (AID 687027); type: functional, cell-based;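 also: luciferase reporter driven by Pax8 target thyroperoxidase promoter measured by SteadyGlo luminescence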
[5] = Luminescence Cell-Based Dose Retest to Confirm Inhibitors of Cancer Stem Cells. [Related pubchem assays (depositor defined):AID2717, AID2721]; type: functional; settings: Homo sapiens
[6] = microbe, parasite or virus in culture; type: functional; settings: Mycobacterium tuberculosis
[7] = Luminescence Cell-Based Dose Response HTS to Identify Inhibitors of 5'UTR Stem-Loop Driven Prion Protein mRNA Translation in H4 Neuroglioblastoma Cells. [Related pubchem assays: 1827 (Project Summary), 1813 (Primary HTS)]; type: functional
[8] = inhibitors of firefly luciferase expression or activity, dose response, H4 neuroglioma cells, luminescence (AID 1990); type: functional, cell-based
[9] = inhibitors of SNCA 5'UTR-driven reporter translation, confirmation, H4 neuroglioma cells, luminescence (AID 1988); type: functional, cell-based
[10] = P. falciparum ATP4 D1247Y mutant growth inhibitors, dose response, NITD609-resistant line, SYBR Green, dry powder (AID 1159571); type: functional, cell-based;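 also: parasites synchronized at ring stage by sorbitol before testing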
[11] = P. falciparum 3D7-ScDHODH growth inhibitors, dose response, SYBR Green, dry powder samples (AID 1159570); type: functional, cell-based;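 also: parasite growth measured after 72 hours of compound exposure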
[12] = P. falciparum Dd2 growth inhibitors, dose response, SYBR Green, dry powder samples (AID 1159566); type: functional, cell-based;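 also: potency for growth inhibition with lower SYBR green DNA signal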
[13] = P. falciparum Dd2 growth inhibitors, dose response, SYBR Green, cherry-picked samples (AID 1159567); type: functional, cell-based
[14] = biological target: T1, Heat shock factor protein 1 (Mus musculus, UniProt P38532); test: HSF1 potentiators in luciferase reporter cells, confirmation, cell-based, NIH3T3, luminescence, dose retest (AID 435004); type: functional;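 also: stress induced by proteasome inhibitor MG132 added 30 min after compound; luciferase reporter driven by HSF1 response element in NIH3T3 cells; actives raise luminescence as potentiators of the MG132 stress response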
T1 sequence (P38532 whole entry): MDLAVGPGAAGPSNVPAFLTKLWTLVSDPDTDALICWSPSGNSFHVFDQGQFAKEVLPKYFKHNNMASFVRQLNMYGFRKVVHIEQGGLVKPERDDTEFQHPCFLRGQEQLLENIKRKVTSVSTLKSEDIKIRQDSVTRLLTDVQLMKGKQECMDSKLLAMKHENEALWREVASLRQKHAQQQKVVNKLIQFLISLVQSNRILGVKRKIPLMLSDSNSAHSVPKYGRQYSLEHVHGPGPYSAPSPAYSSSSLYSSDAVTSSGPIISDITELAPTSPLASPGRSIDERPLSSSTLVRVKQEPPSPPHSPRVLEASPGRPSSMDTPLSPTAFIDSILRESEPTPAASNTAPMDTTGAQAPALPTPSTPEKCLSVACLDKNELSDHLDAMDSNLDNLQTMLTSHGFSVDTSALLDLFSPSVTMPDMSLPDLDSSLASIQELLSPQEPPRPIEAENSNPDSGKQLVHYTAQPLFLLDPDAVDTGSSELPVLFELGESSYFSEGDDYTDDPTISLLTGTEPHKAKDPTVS

[15] = NIH-3T3 fibroblast cytotoxicity, dose response, cytotoxicity control, cell-based, fluorescence, Alamar Blue, secondary assay (AID 2327); type: functional;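 also: NIH-3T3 mouse fibroblasts cultured with fluconazole at 8 µg/mL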
[16] = C. albicans growth with fluconazole, confirmation, fluorescence, retest (AID 2467); type: functional, cell-based
[17] = ZM109 Env clade C HIV-1 fusion inhibitors, dose response, HeLa effector, CEM target cells, luciferase, cherry-pick (AID 652058); type: functional, cell-based
[18] = inhibitors of HIV Env-driven cell fusion, dose response, cherry-pick (AID 652057); type: functional, cell-based
[19] = inhibitors of clade B AD8 Env fusion, dose response, cell-based, cherry-pick (AID 652062); type: functional;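 also: luciferase signal from cell-cell fusion driven by HIV-1 clade B AD8 Env; potency is for inhibitors of fusion seen as a drop in luminescence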
[20] = biological target: T2, Calpain-2 catalytic subunit (Sus scrofa, UniProt P43367); test: pig calpain II inhibitor potency, dose response, biochemical, fluorogenic peptide substrate (AID 1420); type: functional
T2 sequence (P43367 whole entry): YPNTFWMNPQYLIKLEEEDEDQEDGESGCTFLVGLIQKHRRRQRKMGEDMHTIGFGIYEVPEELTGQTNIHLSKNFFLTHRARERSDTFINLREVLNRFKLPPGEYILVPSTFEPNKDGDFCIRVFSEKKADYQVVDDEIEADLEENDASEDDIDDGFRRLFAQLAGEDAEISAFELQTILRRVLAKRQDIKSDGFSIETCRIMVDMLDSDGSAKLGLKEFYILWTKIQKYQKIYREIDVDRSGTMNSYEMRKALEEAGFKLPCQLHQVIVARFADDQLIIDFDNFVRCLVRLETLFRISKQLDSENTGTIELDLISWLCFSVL

[21] = control 3'UTR Renilla luciferase suppression, dose response, counter-screen for Shn3 inhibitor project, cell-based, Clone20-Shn3RL, cherry-picked (AID 624133); type: functional
[22] = HepG2 cell cytotoxicity, dose response, cytotoxicity control for Shn3 inhibitor project, CellTiter-Glo, cherry-picked (AID 624134); type: functional, cell-based
[23] = Shn3 3'UTR reporter inhibitors, dose response, cell-based, Clone20 osteoblasts, firefly luciferase, cherry-picked (AID 624132); type: functional;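 also: firefly luciferase luminescence from reporter carrying the Shn3 3'UTR in osteoblasts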
[24] = biological target: T3, Carboxy-terminal domain RNA polymerase II polypeptide A small phosphatase 1 (Homo sapiens, UniProt Q9GZU7); test: inhibitors of CTDSP1, concentration-response testing, biochemical assay, absorbance-based, actives from ultra-high-throughput screening (AID 540297); type: functional
T3 sequence (Q9GZU7 whole entry): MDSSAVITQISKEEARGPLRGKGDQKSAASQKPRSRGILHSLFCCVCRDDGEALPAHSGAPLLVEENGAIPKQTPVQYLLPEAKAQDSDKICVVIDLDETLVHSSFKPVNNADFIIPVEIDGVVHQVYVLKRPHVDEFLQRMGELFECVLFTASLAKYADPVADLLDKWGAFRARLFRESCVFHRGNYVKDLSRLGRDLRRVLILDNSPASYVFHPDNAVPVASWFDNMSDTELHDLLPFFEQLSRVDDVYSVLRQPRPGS

Chain of Induced myeloid leukemia cell differentiation protein Mcl-1 (Q07820 whole entry): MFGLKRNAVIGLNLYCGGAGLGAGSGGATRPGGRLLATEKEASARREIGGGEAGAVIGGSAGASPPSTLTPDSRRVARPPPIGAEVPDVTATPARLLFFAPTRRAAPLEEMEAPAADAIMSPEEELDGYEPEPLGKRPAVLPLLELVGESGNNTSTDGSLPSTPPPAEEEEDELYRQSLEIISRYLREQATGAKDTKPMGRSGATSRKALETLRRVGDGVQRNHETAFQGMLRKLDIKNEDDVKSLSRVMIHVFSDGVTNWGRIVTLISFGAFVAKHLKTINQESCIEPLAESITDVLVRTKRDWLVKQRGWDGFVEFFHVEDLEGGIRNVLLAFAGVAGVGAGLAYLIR
Chain of Paired box protein Pax-8 (Q06710 whole entry): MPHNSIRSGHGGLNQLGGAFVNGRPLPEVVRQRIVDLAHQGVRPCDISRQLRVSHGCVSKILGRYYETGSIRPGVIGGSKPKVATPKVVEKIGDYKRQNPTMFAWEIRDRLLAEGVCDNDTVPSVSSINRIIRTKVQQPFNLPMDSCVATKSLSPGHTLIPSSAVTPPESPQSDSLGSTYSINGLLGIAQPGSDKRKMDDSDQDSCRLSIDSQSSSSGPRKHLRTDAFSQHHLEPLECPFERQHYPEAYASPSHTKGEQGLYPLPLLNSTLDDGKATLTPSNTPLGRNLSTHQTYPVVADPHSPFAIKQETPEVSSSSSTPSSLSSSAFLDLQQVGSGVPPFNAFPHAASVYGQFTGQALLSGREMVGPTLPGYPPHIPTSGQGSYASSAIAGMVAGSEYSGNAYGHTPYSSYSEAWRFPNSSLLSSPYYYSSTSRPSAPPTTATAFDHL

SMILES: CC1CCN(C(c2ccc(N(C)C)cc2)c2nnnn2C(C)(C)C)CC1 (stereo unspecified)
- IC50 [1]: > 54 µM (active)

SMILES: O=C1NC(=S)N/C1=C/c1cccc2ccccc12
- EC50 (H4): > 120 µM (not active)
- EC50 [2]: 8.63 µM (active)
- EC50 [3]: 17.7 µM (active)

SMILES: C[C@@H]1CN([C@@H](C)CO)C(=O)c2cc(NC(=O)Nc3ccc(C(F)(F)F)cc3)ccc2O[C@@H](C)CCCCO[C@@H]1CN(C)Cc1ccccc1
- AC50 [4]: > 60 µM (inactive)
- AC50 (Paired box protein Pax-8): 9.49 µM (active)

SMILES: Cc1ccc(Oc2cnn(-c3ccccc3)c(=O)c2Br)cc1
- EC50 (H4): 30.7 µM (active)
- EC50 [2]: 27 µM (active)
- EC50 [3]: > 120 µM (not active)

SMILES: COc1ccc(Nc2nc(N)c([N+](=O)[O-])c(NC3CCCCC3)n2)cc1
- AC50 [5]: 3.53 µM (active)
- CC50 [6]: 32 µM (active)
- EC50 [7]: 10.7 µM (active)
- EC50 [8]: 14.8 µM (active)
- EC50 [9]: 17.2 µM (active)

SMILES: COc1ccc(NC(=O)N2CC3(C2)CN(C(=O)C2CCC2)[C@H](CO)c2c3c3ccc(OC)cc3n2C)cc1
- AC50 [10]: 0.372 µM (active)
- AC50 [11]: 0.22 µM (active)
- AC50 [12]: 0.437 µM (active)
- AC50 [13]: 2.21 µM (active)

SMILES: COc1ccc(NC(=O)C2C(=O)N(CCO)C3(C)CC2c2ccccc2O3)cc1 (stereo unspecified)
- EC50 (H4): 10.2 µM (active)
- EC50 [2]: 14.8 µM (active)
- EC50 [3]: 7.35 µM (active)

SMILES: CN1c2ccc(C#Cc3cccnc3)cc2[C@H]2[C@H](CCN2S(=O)(=O)c2ccc(F)cc2)[C@H]1CO
- AC50 [10]: 1.16 µM (active)
- AC50 [11]: 1.33 µM (active)
- AC50 [12]: 1.05 µM (active)
- AC50 [13]: 1.7 µM (active)

SMILES: O=C(N/N=C/c1ccncc1)c1cc2ccccc2cc1O
- EC50 [14]: 106 µM (active)
- EC50 [15]: > 150 µM (inactive)
- EC50 [16]: > 38 µM (not active)

SMILES: C[C@H]1CN([C@@H](C)CO)C(=O)c2cc(NC(=O)Nc3ccc4c(c3)OCO4)ccc2O[C@H]1CN(C)S(=O)(=O)c1cccs1
- AC50 [17]: 24.7 µM (active)
- AC50 [18]: 6.19 µM (active)
- AC50 [19]: 29.3 µM (active)

SMILES: O=C1/C(=C\Nc2ccc(OC(F)(F)F)cc2)CCN1c1ncccn1
- EC50 (H4): 14.6 µM (active)
- EC50 [2]: 23.7 µM (active)
- EC50 [3]: 20.4 µM (active)

SMILES: CCN(CC)CCN(C(=O)c1cc2c(ccc3ccccc32)oc1=O)c1nc2cc3c(cc2s1)OCCO3
- EC50 [7]: > 120 µM (inconclusive)
- EC50 [8]: > 120 µM (not active)
- EC50 [9]: 9.65 µM (active)

SMILES: Nc1nc(Nc2ccccc2)nc(NCc2ccccc2)c1[N+](=O)[O-]
- EC50 [7]: > 120 µM (not active)
- EC50 [8]: 17 µM (active)
- EC50 [9]: 44.7 µM (active)

SMILES: Cc1cc(C)n(CC(C)NC(=O)c2cc(COc3c(F)cccc3F)on2)n1 (stereo unspecified)
- EC50 [7]: > 120 µM (not active)
- EC50 [8]: > 120 µM (not active)
- EC50 [9]: > 120 µM (not active)

SMILES: CCCNC(=O)C[C@@H]1C[C@H]2c3cc(NC(=O)Cc4ccncc4)ccc3O[C@H]2[C@H](CO)O1
- AC50 [19]: 39.4 µM (active)

SMILES: CN1C(=O)/C(=C2/C(=O)Nc3ccccc32)S/C1=N\c1ccc(Cl)cc1
- EC50 (H4): 32.3 µM (active)
- EC50 [2]: 46.1 µM (active)
- EC50 [3]: 12.7 µM (active)

SMILES: O=C(C[C@@H]1C=C[C@@H](NC(=O)Nc2ccc3c(c2)OCO3)[C@H](CO)O1)NCc1ccc(F)cc1
- AC50 [19]: 4.77 µM (active)

SMILES: Cc1cccc(OCCCC(=O)Nc2ccc(N(C)C)cc2)c1
- IC50 [1]: < 0.4 µM (active)

SMILES: CC(=O)c1c(C(C)=O)c(C)n(C(c2ccccc2)c2ccccc2)c1C
- IC50 [20]: > 50 µM (not active)

SMILES: Cc1sc2c(c1C)CN(Cc1ccncc1)CN2C(=O)c1ccco1
- EC50 (H4): > 60 µM (not active)
- EC50 [2]: 11 µM (active)
- EC50 [3]: > 120 µM (not active)

SMILES: CC(C)(C)[S@@+]([O-])N1Cc2cc(C(=O)N[C@@H]3CCN(Cc4ccccc4)C3)nc(-c3cccc(-c4cccnc4)c3)c2[C@H]1CCO
- AC50 [10]: 2.58 µM (active)
- AC50 [11]: 3.42 µM (active)
- AC50 [12]: 2.01 µM (active)
- AC50 [13]: 1.94 µM (active)

SMILES: O=C(O)CC(NC(=O)C1c2ccccc2Oc2ccccc21)c1ccc(OC2CCCC2)cc1 (stereo unspecified)
- IC50 [20]: 6.06 µM (not active)

SMILES: CCc1ccc(-c2csc3ncn(Cc4ccc(C(=O)O)cc4)c(=O)c23)cc1
- EC50 [15]: > 150 µM (inconclusive)
- EC50 [16]: > 38 µM (not active)

SMILES: COc1cccc(S(=O)(=O)N(C)C[C@H]2Oc3cc(C4=CCCC4)ccc3S(=O)(=O)N([C@H](C)CO)C[C@@H]2C)c1
- AC50 [18]: 34.2 µM (active)

SMILES: C[C@H]1CN([C@@H](C)CO)C(=O)c2c(c3ccccc3n2C)-c2ccccc2CO[C@H]1CN(C)C(=O)Cc1ccccc1
- AC50 [17]: < 0.26 µM (active)
- AC50 [18]: < 0.26 µM (active)
- AC50 [19]: < 0.26 µM (active)

SMILES: Cn1nc(-c2ccc(OCC(=O)N3CCN(Cc4ccccc4)CC3)cc2)c2ccccc2c1=O
- AC50 [21]: 4.74 µM (active)
- AC50 [22]: 32.4 µM (active)
- AC50 [23]: 2.1 µM (active)
- AC50 [17]: 27.4 µM (active)
- AC50 [19]: 23.5 µM (active)

SMILES: COc1cccc2sc(NNC(=O)c3nc4ccccc4s3)nc12
- EC50 [7]: 16.5 µM (active)
- EC50 [8]: > 120 µM (not active)
- EC50 [9]: > 120 µM (not active)

SMILES: CC(=O)Nc1ccc(N2CC(C)(C)C2=O)cc1
- EC50 [15]: 38.4 µM (active)
- EC50 [16]: > 38 µM (not active)

SMILES: CCOc1ccccc1NC(=O)/C=C/C(N)=O
- IC50 [1]: 1.1 µM (not active)

SMILES: O=C(N/N=C/c1ccc(-c2ccccc2C(=O)O)o1)c1cccs1
- IC50 [24]: 4.6 µM (active)
- IC50 [1]: 5.27 µM (active)

SMILES: COC(=O)c1cccc(NC(=O)c2cccc(OC)c2)c1
- IC50 [20]: 14.6 µM (not active)

SMILES: CCCCCCNC(=O)CCNS(=O)(=O)c1ccc(C)cc1
- EC50 [7]: > 120 µM (not active)
- EC50 [8]: > 120 µM (not active)
- EC50 [9]: > 120 µM (not active)
